Measured values as given in the supplement of paper PMC10307832.

Key:
Assay in all cases: relative viability (nuclei count vs DMSO), 5 days (fraction); higher = more cells survive
Sulindac + Crizotinib = compound: CC1=C(CC(=O)O)c2cc(F)ccc2/C1=C\c1ccc([S+](C)[O-])cc1 [Sulindac] + C[C@@H](Oc1cc(-c2cnn(C3CCNCC3)c2)cnc1N)c1c(Cl)ccc(F)c1Cl [Crizotinib] (partner 1 µM)
Method in brief: (§1)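 Lung cancer cell lines in 1536-well plates got either a single drug or a fixed anchor-drug dose together with five library-drug doses (not always all listed) in √10 steps, by pin tool, on the day after seeding. Nuclei were counted after 5 days, and relative viability is the treated-to-vehicle ratio of nuclei counts. Values are medians of duplicate plates.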

[1] = compound: CN[C@@H]1C[C@H]2O[C@@](C)([C@@H]1OC)n1c3ccccc3c3c4c(c5c6ccccc6n2c5c31)C(=O)NC4 [Staurosporine] + Nc1ncn([C@H]2C[C@H](O)[C@@H](CO)O2)c(=O)n1 [Decitabine] (partner 2 µM)
Method in brief: as §1

Sulindac + Bortezomib = compound: CC1=C(CC(=O)O)c2cc(F)ccc2/C1=C\c1ccc([S+](C)[O-])cc1 [Sulindac] + CC(C)C[C@H](NC(=O)[C@H](Cc1ccccc1)NC(=O)c1cnccn1)B(O)O [Bortezomib] (partner 0.002 µM)
Method in brief: as §1

[2] = compound: O=c1[nH]cc(F)c(=O)[nH]1 [5-Fluorouracil] + CCNC(=O)c1noc(-c2cc(C(C)C)c(O)cc2O)c1-c1ccc(CN2CCOCC2)cc1 [Luminespib] (partner 0.01 µM)
Method in brief: as §1

Question: With NCI-H520 as the cell line, how does the relative viability (Sulindac + Crizotinib; first compound 0.08 µM) read?
Answer: 0.801

Question: And the relative viability (Sulindac + Crizotinib; first compound 0.253 µM)?
Answer: 0.747

Question: What about the relative viability (Sulindac + Crizotinib; first compound 0.8 µM) of the same cell line?
Answer: 0.445

Question: What about the relative viability (Sulindac + Crizotinib; first compound 2.53 µM) of the same cell line?
Answer: 0.828

Question: And the relative viability (Sulindac + Crizotinib; first compound 8 µM)?
Answer: 0.876

Question: And the relative viability ([1]; first compound 0.005 µM)?
Answer: 0.527

Question: What about the relative viability ([1]; first compound 0.01581 µM) of the same cell line?
Answer: 0.465

Question: What about the relative viability ([1]; first compound 0.05 µM) of the same cell line?
Answer: 0.392

Question: What about the relative viability ([1]; first compound 0.1581 µM) of the same cell line?
Answer: 0.188

Question: And the relative viability ([1]; first compound 0.5 µM)?
Answer: 0.161

Question: What about the relative viability (Sulindac + Bortezomib; first compound 0.08 µM) of the same cell line?
Answer: 0.585

Question: And the relative viability (Sulindac + Bortezomib; first compound 0.253 µM)?
Answer: 0.599

Question: And the relative viability (Sulindac + Bortezomib; first compound 0.8 µM)?
Answer: 0.51

Question: And the relative viability (Sulindac + Bortezomib; first compound 2.53 µM)?
Answer: 0.399

Question: And the relative viability (Sulindac + Bortezomib; first compound 8 µM)?
Answer: 0.764

Question: And the relative viability ([2]; first compound 0.02 µM)?
Answer: 0.19

Question: What about the relative viability ([2]; first compound 0.2 µM) of the same cell line?
Answer: 0.236

Question: What about the relative viability ([2]; first compound 0.6325 µM) of the same cell line?
Answer: 0.19

Question: And the relative viability ([2]; first compound 2 µM)?
Answer: 0.21

Question: What does the source list for LCLC-103H?
Answer: relative viability (Sulindac + Crizotinib; first compound 0.08 µM): 1.09; relative viability (Sulindac + Crizotinib; first compound 0.253 µM): 1.11; relative viability (Sulindac + Crizotinib; first compound 0.8 µM): 0.952; relative viability (Sulindac + Crizotinib; first compound 2.53 µM): 1.11; relative viability (Sulindac + Crizotinib; first compound 8 µM): 1.09; relative viability ([1]; first compound 0.005 µM): 0.753; relative viability ([1]; first compound 0.01581 µM): 0.484; relative viability ([1]; first compound 0.05 µM): 0.34; relative viability ([1]; first compound 0.1581 µM): 0.299; relative viability ([1]; first compound 0.5 µM): 0.278; relative viability (Sulindac + Bortezomib; first compound 0.08 µM): 1.24; relative viability (Sulindac + Bortezomib; first compound 0.253 µM): 1.11; relative viability (Sulindac + Bortezomib; first compound 0.8 µM): 0.948; relative viability (Sulindac + Bortezomib; first compound 2.53 µM): 1.05; relative viability (Sulindac + Bortezomib; first compound 8 µM): 1.21; relative viability ([2]; first compound 0.02 µM): 0.951; relative viability ([2]; first compound 0.2 µM): 0.999; relative viability ([2]; first compound 0.6325 µM): 0.521; relative viability ([2]; first compound 2 µM): 0.28

Question: What does the source list for NCI-H1975?
Answer: relative viability (Sulindac + Crizotinib; first compound 0.08 µM): 1.06; relative viability (Sulindac + Crizotinib; first compound 0.253 µM): 1.07; relative viability (Sulindac + Crizotinib; first compound 2.53 µM): 1.01; relative viability (Sulindac + Crizotinib; first compound 8 µM): 1.14; relative viability ([1]; first compound 0.005 µM): 0.255; relative viability ([1]; first compound 0.01581 µM): 0.206; relative viability ([1]; first compound 0.05 µM): 0.184; relative viability ([1]; first compound 0.1581 µM): 0.15; relative viability ([1]; first compound 0.5 µM): 0.131; relative viability (Sulindac + Bortezomib; first compound 0.08 µM): 0.387; relative viability (Sulindac + Bortezomib; first compound 0.253 µM): 0.461; relative viability (Sulindac + Bortezomib; first compound 2.53 µM): 0.334; relative viability (Sulindac + Bortezomib; first compound 8 µM): 0.441; relative viability ([2]; first compound 0.02 µM): 0.302; relative viability ([2]; first compound 0.2 µM): 0.217; relative viability ([2]; first compound 0.6325 µM): 0.397; relative viability ([2]; first compound 2 µM): 0.237
